molecular target: Plk1 (Homo sapiens, UniProt P53350); assay: biochemical
Sequence (P53350 20-338): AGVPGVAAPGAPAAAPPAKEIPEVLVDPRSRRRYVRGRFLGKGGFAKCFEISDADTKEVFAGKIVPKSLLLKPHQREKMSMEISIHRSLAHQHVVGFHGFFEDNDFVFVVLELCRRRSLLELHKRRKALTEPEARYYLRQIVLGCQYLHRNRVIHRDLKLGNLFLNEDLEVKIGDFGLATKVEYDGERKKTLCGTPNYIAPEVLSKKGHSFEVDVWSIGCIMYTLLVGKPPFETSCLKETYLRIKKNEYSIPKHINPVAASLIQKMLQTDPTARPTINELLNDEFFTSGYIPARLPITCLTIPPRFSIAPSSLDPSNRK

| SMILES | Ki [µM] |
| --- | --- |
| COc1cc(C(=O)NCc2ccccc2)ccc1Nc1ncc2c(n1)N(C1CCCC1)CC(C)(C)C(=O)N2C [Compound I-201] | < 0.01 |
| COc1cc(C(=O)N[C@H](C)c2ccccc2)ccc1Nc1ncc2c(n1)N(C1CCCC1)CC(C)(C)C(=O)N2C [Compound I-226, (R)-4-(9-cyclopentyl-5,7,7-trimethyl-6-oxo-6,7,8,9-tetrahydro-5H-pyrimido[4,5-b][1,4]diazepin-2-ylamino)-3-methoxy-N-(1-phenylethyl)benzamide] | < 0.01 |
| COc1cc(C(=O)NCC(O)C(F)(F)F)ccc1Nc1ncc2c(n1)N(C1CCCC1)CC(C)(C)C(=O)N2C (stereo not shown) [Compound I-278, 4-(9-cyclopentyl-5,7,7-trimethyl-6-oxo-6,7,8,9-tetrahydro-5H-pyrimido[4,5-b][1,4]diazepin-2-ylamino)-3-methoxy-N-(3,3,3-trifluoro-2-hydroxypropyl)benzamide] | < 0.01 |
| CN1C(=O)C(C)(C)CN(C2CCCC2)c2nc(Nc3ccc4c(c3)C(=O)C(=O)N4)ncc21 [Compound I-139, 5-(9-Cyclopentyl-6,7,8,9-tetrahydro-5,7,7-trimethyl-6-oxo-5H-pyrimido[4,5-b][1,4]diazepin-2-ylamino)indoline-2,3-dione] | 0.01 to 0.1 |
| CC(=O)Nc1ccc(C)c(Nc2ncc3c(n2)N(C2CCCC2)CC(C)(C)C(=O)N3C)c1 [Compound I-163, N-(3-(9-cyclopentyl-6,7,8,9-tetrahydro-5,7,7-trimethyl-6-oxo-5H-pyrimido[4,5-b][1,4]diazepin-2-ylamino)-4-methylphenyl)acetamide] | < 0.01 |
| CN1C(=O)C(C)(C)CN(C2CCCC2)c2nc(Nc3ccc4c(cnn4C)c3)ncc21 [Compound I-110, 2-(1-methyl-1H-indazol-5-ylamino)-9-cyclopentyl-8,9-dihydro-5,7,7-trimethyl-5H-pyrimido[4,5-b][1,4]diazepin-6(7H)-one] | 0.01 to 0.1 |
| CNC(=O)c1ccc(Nc2ncc3c(n2)N(C2CCCC2)C[C@H](C)C(=O)N3C)c(OC)c1 [Compound I-17, 4-((S)-9-cyclopentyl-6,7,8,9-tetrahydro-5,7-dimethyl-6-oxo-5H-pyrimido[4,5-b][1,4]diazepin-2-ylamino)-3-methoxy-N-methylbenzamide] | < 0.01 |

Results, then the compound that gave them:

| Ki [µM] | SMILES |
| --- | --- |
| < 0.01 | COCCNC(=O)c1ccc(Nc2ncc3c(n2)N(C2CCCC2)CC(C)(C)C(=O)N3C)c(OC)c1 [Compound I-197, 4-(9-cyclopentyl-5,7,7-trimethyl-6-oxo-6,7,8,9-tetrahydro-5H-pyrimido[4,5-b][1,4]diazepin-2-ylamino)-3-methoxy-N-(2-methoxyethyl)benzamide] |
| 0.01 to 0.1 | CNC(=O)c1ccc(Nc2ncc3c(n2)N([C@@H]2CCN(CC4CC4)C2)CC(C)(C)C(=O)N3C)c(OC)c1 [Compound I-66] |
| < 0.01 | COc1cc(C(=O)NCCOCCO)ccc1Nc1ncc2c(n1)N(C1CCCC1)CC(C)(C)C(=O)N2C [Compound I-237, 4-(9-cyclopentyl-5,7,7-trimethyl-6-oxo-6,7,8,9-tetrahydro-5H-pyrimido[4,5-b][1,4]diazepin-2-ylamino)-N-(2-(2-hydroxyethoxy)ethyl)-3-methoxybenzamide] |
| < 0.01 | COc1cc(C(=O)NCc2cc(C)on2)ccc1Nc1ncc2c(n1)N(C1CCCC1)CC(C)(C)C(=O)N2C [Compound I-235, 4-(9-cyclopentyl-5,7,7-trimethyl-6-oxo-6,7,8,9-tetrahydro-5H-pyrimido[4,5-b][1,4]diazepin-2-ylamino)-3-methoxy-N-((5-methylisoxazol-3-yl)methyl)benzamide] |
| < 0.01 | COc1cc(C(=O)NCCCO)ccc1Nc1ncc2c(n1)N(C1CCCC1)CC(C)(C)C(=O)N2C [Compound I-241] |
| < 0.01 | CCOc1cc(C(=O)NC2CCN(C)CC2)ccc1Nc1ncc2c(n1)N(C1CCCC1)CC(C)(C)C(=O)N2C [Compound I-74, 4-(9-cyclopentyl-6,7,8,9-tetrahydro-5,7,7-trimethyl-6-oxo-5H-pyrimido[4,5-b][1,4]diazepin-2-ylamino)-3-ethoxy-N-(1-methylpiperidin-4-yl)benzamide] |

Reference: patent publication US8394952B2 (Vertex Pharmaceuticals Incorporated, priority 2006, dated 2013)
